Measurements as given in ChEMBL document CHEMBL1201862, “PubChem BioAssay data set” (2004).
Activity calls are given as the source filed them.

Experiments:
[1] = Fluorescence Cell-Based Dose Response to Identify Inhibitors of Thrombin Receptor-Activating Peptide SFLLRN-Mediated P-Selectin Induction on Platelets. [Related pubchem assays: 1663 (Primary HTS), 1889 (retest at dose ), 1891 (counterscreen), 1678 (Project Summary)]; type: functional
[2] = test system: Streptococcus; test: GAS UMAA2166 growth inhibition – luminescence, BacTiterGlo, counter-screen for streptokinase expression inhibitor project, dose response (AID 1915); type: functional, organism-based;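 note: potency for reduction of bacterial viability or growth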
[3] = target: T1, Streptokinase A (Streptococcus pyogenes serotype M1, UniProt P10520); test: viability-normalized secreted streptokinase activity reduction – plasminogen activation absorbance, OD405, dose response (AID 1914); type: functional, Streptococcus pyogenes M1 GAS;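 note: secreted streptokinase activity via plasminogen activation per viability signal from cell pellet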
T1 sequence (P10520 whole entry): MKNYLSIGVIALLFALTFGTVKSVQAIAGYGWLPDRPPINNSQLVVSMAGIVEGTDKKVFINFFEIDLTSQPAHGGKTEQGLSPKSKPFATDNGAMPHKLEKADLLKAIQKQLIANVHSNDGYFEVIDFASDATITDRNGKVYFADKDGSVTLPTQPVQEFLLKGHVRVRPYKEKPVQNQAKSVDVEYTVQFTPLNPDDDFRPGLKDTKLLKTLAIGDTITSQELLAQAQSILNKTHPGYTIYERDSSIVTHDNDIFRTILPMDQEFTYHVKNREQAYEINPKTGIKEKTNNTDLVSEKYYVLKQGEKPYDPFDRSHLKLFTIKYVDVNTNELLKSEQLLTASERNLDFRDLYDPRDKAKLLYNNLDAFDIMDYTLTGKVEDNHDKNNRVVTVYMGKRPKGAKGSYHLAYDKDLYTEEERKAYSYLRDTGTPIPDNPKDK

[4] = target: T2, Luciferin 4-monooxygenase (Photinus pyralis, UniProt P08659); test: inhibition of purified Photinus pyralis luciferase – biochemical, luminescence, dose response (AID 1891)
T2 sequence (P08659 whole entry): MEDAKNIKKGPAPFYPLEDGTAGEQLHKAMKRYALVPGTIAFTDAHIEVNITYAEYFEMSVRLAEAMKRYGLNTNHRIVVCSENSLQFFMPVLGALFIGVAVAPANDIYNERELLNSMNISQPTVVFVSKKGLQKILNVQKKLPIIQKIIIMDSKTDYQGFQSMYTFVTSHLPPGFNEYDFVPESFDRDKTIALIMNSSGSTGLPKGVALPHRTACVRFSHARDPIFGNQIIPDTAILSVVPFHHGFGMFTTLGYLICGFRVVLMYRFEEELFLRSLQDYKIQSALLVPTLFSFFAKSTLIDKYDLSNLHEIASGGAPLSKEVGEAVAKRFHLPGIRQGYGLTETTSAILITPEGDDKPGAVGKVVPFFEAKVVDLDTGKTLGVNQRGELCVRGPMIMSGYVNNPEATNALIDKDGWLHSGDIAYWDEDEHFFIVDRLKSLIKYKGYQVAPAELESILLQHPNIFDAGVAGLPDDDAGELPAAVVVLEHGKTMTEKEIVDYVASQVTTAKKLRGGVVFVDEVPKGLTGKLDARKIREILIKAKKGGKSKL

[5] = test system: Streptococcus sp. 'group A'; test: Streptococcus pyogenes SK(-)GAS viability under kanamycin – luminescence, BacTiterGlo, confirmation, counter-screen for streptokinase expression inhibitor project, dose response (AID 1900); type: functional, organism-based
[6] = Luminescence Cell-Based Dose Confirmation HTS to Identify Inhibitors of Platelet Dense Granule Release. [Related pubchem assays: 1663 (Primary HTS), 1678 (Summary of Project)]; type: functional
[7] = viability loss in CEM21 cells – cell-based, plate reader, dry powder, cytotoxicity control, dose response (AID 687026); type: functional
[8] = test system: INS1; test: INS-1E survival protection against cytokine death – cell-based, luminescence, retest, dose response (AID 449756); type: functional; conditions: Rattus norvegicus;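 note: cell death triggered by IL-1 beta plus TNF-alpha plus IFN-gamma mixture; protective hits raise ATP signal compared with cytokine alone wells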
[9] = blockers of HIV-1 envelope-mediated cell-cell fusion – cherry-pick, dose response (AID 652057); type: functional, cell-based
[10] = non-specific 3'UTR reporter inhibition in Clone20-Shn3RL – cell-based, Renilla luciferase, cherry-picked, counter-screen for Shn3 inhibitor project, dose response (AID 624133); type: functional
[11] = blockers of HIV-1 ZM109 envelope-driven cell-cell fusion – HeLa effector, CEM target cells, luciferase, cherry-pick, dose response (AID 652058); type: functional, cell-based;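 note: luciferase signal from HIV-1 Env mediated cell-cell fusion of effector and target cells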
[12] = loss of viability in HepG2 cells – cell-based, CellTiter-Glo, cherry-picked, cytotoxicity control for Shn3 inhibitor project, dose response (AID 624134); type: functional
[13] = target: COUP transcription factor 2 (Homo sapiens, UniProt P24468); test: Luminescence-based cell-based high throughput dose response assay to identify inhibitors of COUP-TFII (NR2F2).; type: functional;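 note: HEK293 cells transiently cotransfected with COUP-TFII expression vector and reporter; luciferase reporter luminescence driven by COUP-TFII from the pX2-168 reporter plasmid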
Sequence of COUP transcription factor 2 (P24468 whole entry): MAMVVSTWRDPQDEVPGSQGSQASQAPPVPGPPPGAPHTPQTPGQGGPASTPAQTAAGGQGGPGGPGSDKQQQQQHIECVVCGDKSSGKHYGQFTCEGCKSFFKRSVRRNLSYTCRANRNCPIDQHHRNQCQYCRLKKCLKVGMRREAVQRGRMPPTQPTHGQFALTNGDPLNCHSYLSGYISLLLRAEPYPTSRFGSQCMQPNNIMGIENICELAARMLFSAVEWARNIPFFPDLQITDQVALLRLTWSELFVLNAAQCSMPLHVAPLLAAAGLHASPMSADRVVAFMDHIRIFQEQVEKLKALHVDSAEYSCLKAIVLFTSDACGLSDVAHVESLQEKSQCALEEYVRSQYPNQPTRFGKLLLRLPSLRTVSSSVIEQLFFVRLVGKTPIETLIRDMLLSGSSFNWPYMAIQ

[14] = HEK-293T viability loss, compound-treated – cell-based, uHTS hits, cytotoxicity control for B/T-cell NF-kB inhibitor project, dose response (AID 489019); type: functional;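 note: IC50 reflects cytotoxicity as loss of cell viability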
[15] = HIV-1 AD8 envelope cell-cell fusion blockers – cherry-pick, dose response (AID 652062); type: functional, cell-based;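 note: luciferase signal from cell-cell fusion driven by HIV-1 clade B AD8 Env; potency is for inhibitors of fusion seen as a drop in luminescence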
[16] = off-target signal loss in HeLa-CEM21 co-culture – HeLa F-luc CTL cells, cherry-picked, counter-screen for HIV-1 Env fusion inhibitor project, dose response (AID 652040); type: functional, cell-based;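 note: potency for signal decrease marking cytotoxic or nonspecific inhibition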
[17] = test system: Jurkat; test: blockers of NF-kB activation in T cells – Jurkat, luciferase reporter, luminescence, B- and T-cell, dose response (AID 489004); type: functional, cell-based; conditions: Homo sapiens;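 note: NF-kB luciferase reporter Jurkat cells stimulated with PMA plus ionomycin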
[18] = target: Galanin receptor type 2 (Homo sapiens, UniProt O43603); test: Dose Response cell-based high-throughput screening assay to identify antagonists of galanin receptor 2 (GALR2). [Related pubchem assays: 828, 866 ]; type: functional
Sequence of Galanin receptor type 2 (O43603 whole entry): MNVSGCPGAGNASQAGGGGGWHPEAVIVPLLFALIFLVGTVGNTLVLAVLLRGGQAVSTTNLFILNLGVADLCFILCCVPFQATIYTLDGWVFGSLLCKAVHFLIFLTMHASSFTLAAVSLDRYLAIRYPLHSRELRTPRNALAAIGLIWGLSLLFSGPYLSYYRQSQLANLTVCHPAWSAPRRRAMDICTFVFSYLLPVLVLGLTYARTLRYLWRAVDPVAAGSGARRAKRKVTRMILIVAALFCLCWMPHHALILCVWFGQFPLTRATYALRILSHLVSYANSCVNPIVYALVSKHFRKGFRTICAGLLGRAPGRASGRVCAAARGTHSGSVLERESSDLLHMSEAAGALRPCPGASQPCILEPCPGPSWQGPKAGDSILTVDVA

[19] = reduction of Shn3 3'UTR-driven luciferase in osteoblasts – cell-based, Clone20 osteoblasts, firefly luciferase, cherry-picked, dose response (AID 624132); type: functional;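 note: firefly luciferase luminescence from reporter carrying the Shn3 3'UTR in osteoblasts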
[20] = blockers of FN fibrillogenesis by fibroblasts – AH1F cells, Alexa488-FN fluorescence, cherry-picks, dose response (AID 1035475); type: functional, cell-based
[21] = target: T2, Luciferin 4-monooxygenase; test: Counter Screen for Luciferase-based Assay Positives. [Related pubchem assays: 620, 618, 411 ]
[22] = Late stage assay provider results from the probe development effort to identify selective inhibitors of heat shock protein 90 (HSP90): Absorbance-based cell proliferation assay in SKBR3 cells.; type: functional; conditions: SK-BR-3
[23] = test system: HT-1080; test: HT1080 cell viability loss – fluorescence readout (AID 620); type: functional, cell-based; conditions: Homo sapiens
[24] = Late stage assay provider results from the probe development effort to identify selective inhibitors of heat shock protein 90 (HSP90): Absorbance-based cell proliferation assay in MCF7 cells.; type: functional
[25] = viability loss in HEK293 kidney cells – cell-based, cherry-picks, set 5, cytotoxicity control, dose response (AID 1053117); type: functional
[26] = test system: Streptococcus; test: GAS bacterial viability reduction – luminescence, BacTiter-Glo, strain UMAA2166, counter-screen for streptokinase expression inhibitor project, dose response (AID 2477); type: functional, organism-based
[27] = target: T1, Streptokinase A; test: Absorbance Microorganism-Based Dose Response Follow up to Identify Inhibitors of Streptokinase Expression. [Related pubchem assays: 1677 (Project Summary), 1915, 1914, 1902 (Retest at Dose), 1900 (Counter Screen), 1662 (Primary HTS)]; type: functional, Streptococcus pyogenes M1 GAS
[28] = target: Epstein-Barr nuclear antigen 1 (Epstein-Barr virus (strain B95-8) (HHV-4) (Human herpesvirus 4), UniProt P03211); test: inhibition of EBV nuclear antigen 1 DNA binding – biochemical, fluorescence polarization, 1536-well, dose response (AID 2381); set-up: species or system human gammaherpesvirus 4;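 note: fluorescence polarization of a Cy5 DNA probe bound by EBNA-1 protein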
Sequence of Epstein-Barr nuclear antigen 1 (P03211 whole entry): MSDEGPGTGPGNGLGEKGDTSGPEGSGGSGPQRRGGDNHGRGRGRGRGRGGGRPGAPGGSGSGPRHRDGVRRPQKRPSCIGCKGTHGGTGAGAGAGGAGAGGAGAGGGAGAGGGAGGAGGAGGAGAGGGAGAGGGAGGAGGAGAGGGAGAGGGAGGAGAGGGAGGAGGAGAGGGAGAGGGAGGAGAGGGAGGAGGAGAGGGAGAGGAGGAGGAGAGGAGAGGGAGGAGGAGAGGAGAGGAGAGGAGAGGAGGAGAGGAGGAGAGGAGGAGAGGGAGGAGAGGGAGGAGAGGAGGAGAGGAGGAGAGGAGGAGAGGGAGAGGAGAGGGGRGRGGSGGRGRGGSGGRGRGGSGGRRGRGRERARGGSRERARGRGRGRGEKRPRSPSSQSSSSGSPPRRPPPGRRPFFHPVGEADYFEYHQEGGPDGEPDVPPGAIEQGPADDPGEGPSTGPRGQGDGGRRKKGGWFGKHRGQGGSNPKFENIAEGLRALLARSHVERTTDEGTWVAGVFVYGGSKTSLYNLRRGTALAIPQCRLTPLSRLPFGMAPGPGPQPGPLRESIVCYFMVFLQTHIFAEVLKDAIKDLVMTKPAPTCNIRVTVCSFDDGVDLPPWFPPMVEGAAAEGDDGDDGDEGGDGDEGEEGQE

[29] = target: Lytic switch protein BZLF1 (Epstein-Barr virus (strain B95-8) (HHV-4) (Human herpesvirus 4), UniProt P03206); test: inhibition of BZLF1 ZTA DNA binding – biochemical, fluorescence polarization, Epstein-Barr virus, 1536-well, counter-screen for EBNA-1 inhibitor project, dose response (AID 2377); set-up: species or system human gammaherpesvirus 4;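 note: fluorescence polarization of Cy5-labelled ZRE DNA probe bound by purified Zta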
Sequence of Lytic switch protein BZLF1 (P03206 whole entry): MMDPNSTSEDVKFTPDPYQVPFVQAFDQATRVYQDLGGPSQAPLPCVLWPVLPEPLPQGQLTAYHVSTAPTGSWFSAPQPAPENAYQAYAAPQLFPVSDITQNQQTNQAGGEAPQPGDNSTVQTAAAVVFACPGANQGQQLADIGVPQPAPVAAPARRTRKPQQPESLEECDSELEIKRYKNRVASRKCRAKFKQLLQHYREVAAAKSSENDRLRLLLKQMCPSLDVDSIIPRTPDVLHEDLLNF

[30] = target: Transitional endoplasmic reticulum ATPase (Homo sapiens, UniProt P55072); test: Luminescence dose response biochemical high throughput screening assay for inhibitors of the p97 ATPase: synthesized compounds. [Related pubchem assays: 1481, 1517 ]
Sequence of Transitional endoplasmic reticulum ATPase (Homo sapiens, UniProt P55072) (P55072 whole entry): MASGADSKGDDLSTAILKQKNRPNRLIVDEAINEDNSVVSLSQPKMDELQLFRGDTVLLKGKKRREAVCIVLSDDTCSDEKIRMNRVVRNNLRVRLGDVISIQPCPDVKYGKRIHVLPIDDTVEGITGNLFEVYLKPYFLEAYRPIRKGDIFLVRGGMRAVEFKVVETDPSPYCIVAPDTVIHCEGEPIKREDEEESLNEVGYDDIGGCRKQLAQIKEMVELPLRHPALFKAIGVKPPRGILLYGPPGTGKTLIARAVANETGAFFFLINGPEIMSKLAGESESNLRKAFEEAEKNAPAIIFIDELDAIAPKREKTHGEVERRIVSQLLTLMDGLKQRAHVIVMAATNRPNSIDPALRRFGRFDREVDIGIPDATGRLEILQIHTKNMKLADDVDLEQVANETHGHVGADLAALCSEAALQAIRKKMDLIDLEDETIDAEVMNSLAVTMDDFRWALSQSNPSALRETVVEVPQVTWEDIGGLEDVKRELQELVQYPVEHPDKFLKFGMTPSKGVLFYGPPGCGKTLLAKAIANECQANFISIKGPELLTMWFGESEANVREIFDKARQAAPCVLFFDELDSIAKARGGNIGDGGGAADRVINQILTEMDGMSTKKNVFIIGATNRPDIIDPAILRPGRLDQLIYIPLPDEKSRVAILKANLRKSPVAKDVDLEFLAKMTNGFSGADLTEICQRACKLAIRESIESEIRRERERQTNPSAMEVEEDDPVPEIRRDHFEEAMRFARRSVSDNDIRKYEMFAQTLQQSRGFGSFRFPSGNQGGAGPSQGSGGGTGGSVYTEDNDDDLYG

[31] = target: Transitional endoplasmic reticulum ATPase (Homo sapiens, UniProt P55072, C522A); test: Luminescence counterscreen assay for p97 inhibitors: dose response biochemical high throughput screening assay to identify inhibitors of the C522A mutant p97 ATPase: synthesized compounds. [Related pubchem assays: 1481, 1517, 1551 ]
Sequence of Transitional endoplasmic reticulum ATPase (Homo sapiens, UniProt P55072, C522A) (P55072 2-806 C522A limits assumed): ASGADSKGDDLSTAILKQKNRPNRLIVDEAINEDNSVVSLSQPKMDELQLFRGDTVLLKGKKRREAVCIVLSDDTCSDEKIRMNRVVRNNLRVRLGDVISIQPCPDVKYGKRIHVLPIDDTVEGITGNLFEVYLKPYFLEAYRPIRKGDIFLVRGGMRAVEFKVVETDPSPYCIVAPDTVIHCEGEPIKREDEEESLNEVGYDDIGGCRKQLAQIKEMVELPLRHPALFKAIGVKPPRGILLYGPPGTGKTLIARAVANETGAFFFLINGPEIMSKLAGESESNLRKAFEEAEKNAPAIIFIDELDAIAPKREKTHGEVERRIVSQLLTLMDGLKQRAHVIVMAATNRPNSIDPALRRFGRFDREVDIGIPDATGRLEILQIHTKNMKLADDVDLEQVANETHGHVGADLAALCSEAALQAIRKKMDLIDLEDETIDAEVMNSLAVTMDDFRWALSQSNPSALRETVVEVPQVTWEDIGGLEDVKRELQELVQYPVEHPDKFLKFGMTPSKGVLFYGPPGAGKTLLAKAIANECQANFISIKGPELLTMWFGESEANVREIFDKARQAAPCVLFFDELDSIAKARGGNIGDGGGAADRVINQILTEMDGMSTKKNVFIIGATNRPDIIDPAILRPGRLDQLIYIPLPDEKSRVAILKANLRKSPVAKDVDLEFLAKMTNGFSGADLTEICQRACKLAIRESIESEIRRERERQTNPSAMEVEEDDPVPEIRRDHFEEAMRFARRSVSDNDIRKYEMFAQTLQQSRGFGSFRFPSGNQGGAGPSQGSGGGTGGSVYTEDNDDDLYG

[32] = target: Peroxisome proliferator-activated receptor gamma/Nuclear receptor corepressor 2 (Homo sapiens, UniProt P37231+Q9Y618); test: Counterscreen for NR2E3 inverse agonists: TR-FRET-based biochemical high throughput dose response assay to identify inverse agonists of the interaction between peroxisome proliferator-activated receptor gamma (PPARg) and nuclear receptor co-repressor 2 (NCOR2).; type: functional
[33] = target: Photoreceptor-specific nuclear receptor (Homo sapiens, UniProt Q9Y5X4); test: ligands suppressing NR2E3 nuclear receptor activity – biochemical, TR-FRET, dose response (AID 463256); type: functional
Sequence of Photoreceptor-specific nuclear receptor (Q9Y5X4 whole entry, the tested form may be a part): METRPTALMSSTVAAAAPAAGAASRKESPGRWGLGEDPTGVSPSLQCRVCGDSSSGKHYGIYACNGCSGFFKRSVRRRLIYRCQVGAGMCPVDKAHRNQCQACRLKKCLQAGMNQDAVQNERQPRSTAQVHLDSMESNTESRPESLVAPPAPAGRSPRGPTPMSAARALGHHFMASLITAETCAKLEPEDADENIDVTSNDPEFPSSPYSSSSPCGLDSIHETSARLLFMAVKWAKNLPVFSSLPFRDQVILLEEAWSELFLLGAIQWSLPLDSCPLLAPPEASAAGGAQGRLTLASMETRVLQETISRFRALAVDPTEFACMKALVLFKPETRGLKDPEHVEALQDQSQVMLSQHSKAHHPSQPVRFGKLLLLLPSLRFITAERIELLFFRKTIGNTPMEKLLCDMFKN

[34] = target: Disintegrin and metalloproteinase domain-containing protein 17 (Homo sapiens, UniProt P78536); test: exosite inhibitors of ADAM17, dose response, biochemical (AID 743260)
[35] = target: T3, RNA-binding protein pos-1 (Caenorhabditis elegans, UniProt G5EF15); test: disruptors of C. elegans POS-1 RNA interaction – biochemical, fluorescence polarization, dose response (AID 1964);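 note: purified POS-1 fused to maltose binding protein made in E. coli; potency of compounds blocking POS-1 binding to fluorescent RNA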
T3 sequence (G5EF15 whole entry): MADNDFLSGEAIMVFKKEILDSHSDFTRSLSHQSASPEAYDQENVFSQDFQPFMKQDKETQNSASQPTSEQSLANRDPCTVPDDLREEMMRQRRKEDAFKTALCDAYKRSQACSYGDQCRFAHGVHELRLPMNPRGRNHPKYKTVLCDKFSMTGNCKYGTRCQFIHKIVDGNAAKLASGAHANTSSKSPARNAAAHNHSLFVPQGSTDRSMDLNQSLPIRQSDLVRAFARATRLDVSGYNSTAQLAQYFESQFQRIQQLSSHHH

[36] = antibacterial activity against E. coli NEB5alpha – luminescence, counter-screen for MEX-5/POS-1 RNA-binding inhibitor project, dose response (AID 1959); type: functional
[37] = mitochondrial function rescue without frataxin homolog – Friedreich's ataxia, plus single-dose screen, dose response (AID 1465); type: functional;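 note: yeast depleted of Yfh1p frataxin homolog grown on glycerol needing respiration; WST-1 tetrazolium dye reduction as measure of cellular dehydrogenase metabolic activity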
[38] = inhibition of ADAM10 peptide cleavage – biochemical, FRET peptide substrate, recombinant human ADAM10, selectivity assay for ADAM17 exosite inhibitor project, dose response (AID 743259);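 note: ADAM10 enzyme cleaving a FRET peptide substrate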
[39] = target: T4, Estrogen receptor (Homo sapiens, UniProt P03372); test: ERα coactivator recruitment enhancers – biochemical, TR-FRET, ERα LBD, dose response (AID 737)
T4 sequence (P03372 whole entry): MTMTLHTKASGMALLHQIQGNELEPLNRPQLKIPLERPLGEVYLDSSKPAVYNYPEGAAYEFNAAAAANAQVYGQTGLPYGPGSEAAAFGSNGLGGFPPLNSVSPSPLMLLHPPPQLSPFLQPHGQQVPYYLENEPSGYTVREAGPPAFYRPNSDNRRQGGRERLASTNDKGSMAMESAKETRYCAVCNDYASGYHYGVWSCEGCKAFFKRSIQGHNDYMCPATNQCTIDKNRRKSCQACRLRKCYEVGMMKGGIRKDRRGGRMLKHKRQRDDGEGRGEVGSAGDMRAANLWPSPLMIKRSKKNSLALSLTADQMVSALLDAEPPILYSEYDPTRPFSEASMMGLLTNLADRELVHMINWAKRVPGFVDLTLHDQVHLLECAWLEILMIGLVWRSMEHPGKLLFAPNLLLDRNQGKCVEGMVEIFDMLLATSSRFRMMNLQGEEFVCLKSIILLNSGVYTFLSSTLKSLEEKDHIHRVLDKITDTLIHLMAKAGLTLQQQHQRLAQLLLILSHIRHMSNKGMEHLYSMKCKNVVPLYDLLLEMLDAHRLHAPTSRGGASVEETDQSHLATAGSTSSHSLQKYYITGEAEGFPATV

CC(=O)Oc1ccc(-c2nc(-c3cccnc3)no2)cc1
EC50 [1]: 30 µM (not active) | EC50 [2]: 17.3 µM (active) | EC50 [3]: > 150 µM (not active) | EC50 [4]: 8.16 µM (active) | EC50 [5]: 4.89 µM (active) | EC50 [6]: < 0.701 µM (active)

CCOc1ccc(S(=O)(=O)NCc2ccncc2)cc1
AC50 [7]: > 70 µM (inactive) | AC50 [8]: 1.08 µM (active) | AC50 [9]: 1.36 µM (active) | AC50 [10]: 10.5 µM (active) | AC50 [11]: < 0.26 µM (active) | AC50 [12]: 0.603 µM (active) | IC50 [13]: 2.27 µM (active) | IC50 [14]: > 80 µM (inactive) | AC50 [15]: 2.72 µM (active) | AC50 [16]: > 70 µM (inactive) | IC50 [17]: > 80 µM (inactive) | IC50 [18]: > 42 µM (not active) | AC50 [19]: 0.261 µM (active)

CC(C)CNC(=O)c1coc(=O)c(Br)c1
AC50 [20]: 23.9 µM (active) | EC50 [21]: 1.83 µM (active) | IC50 [22]: 22 µM (inactive) | EC50 [23]: 20.4 µM (active) | IC50 [24]: 7.5 µM (active) | AC50 [25]: > 52 µM (inactive)

CCCOc1ccc(-c2nc(Oc3ccccc3)c3ccccc3n2)cc1
EC50 [26]: > 500 µM (not active) | EC50 [27]: 71.6 µM (active)

COC(=O)c1ccc2nc(NC(=O)CCS(=O)(=O)c3ccccc3)sc2c1
IC50 [28]: 39 µM (not active) | IC50 [29]: > 111 µM (not active)

CCOC(=O)/C(C#N)=C/c1ccc([N+](=O)[O-])cc1
IC50 [30]: > 50 µM (not active) | IC50 [31]: > 50 µM (not active)

CCCS(=O)(=O)N1CCC(C(=O)NCCCN(CC)c2cccc(C)c2)CC1
IC50 [32]: > 4.43 µM (active) | IC50 [33]: > 4.43 µM (active)

CCOc1ccc(N/N=C2/C(=O)Nn3c2nc(C)cc3=O)cc1
EC50 [4]: 0.535 µM (active) | IC50 [34]: > 69.5 µM (inactive) | EC50 [35]: 213 µM (active) | EC50 [36]: 16.2 µM (active) | EC50 [37]: > 100 µM (active) | IC50 [38]: 24.7 µM (inactive) | EC50 [6]: 9.37 µM (active)

C[C@]12CC[C@@H]3c4ccc(O)cc4C(=O)C[C@H]3[C@@H]1CC[C@@H]2O
EC50 [39]: 12.5 µM (active)
